# In patent US20020192711A1, “Methods for identifying ligands of G-Protein-Coupled receptors” (priority 2001, published 2002):
# Entries after “also recorded” stand apart in the source; their conditions may differ.
# T1: CCR5 (Homo sapiens, UniProt P51681, L55Q)
# T1 construct: made in house; host or cells: insect cells (Sf9 / High Five), baculovirus
# T1 sequence (P51681 1-352 L55Q): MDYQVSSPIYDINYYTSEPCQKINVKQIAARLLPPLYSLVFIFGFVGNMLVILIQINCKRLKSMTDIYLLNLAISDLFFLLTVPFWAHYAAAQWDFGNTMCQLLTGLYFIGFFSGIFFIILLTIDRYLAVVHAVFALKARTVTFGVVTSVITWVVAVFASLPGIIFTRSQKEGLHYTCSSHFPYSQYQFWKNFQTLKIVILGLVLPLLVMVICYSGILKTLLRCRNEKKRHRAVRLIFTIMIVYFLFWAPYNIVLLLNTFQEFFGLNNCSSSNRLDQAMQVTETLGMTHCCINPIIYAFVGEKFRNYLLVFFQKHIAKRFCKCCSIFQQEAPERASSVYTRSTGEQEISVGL
# T2: C5a receptor (Homo sapiens, UniProt P21730)
# T2 sequence (P21730 1-350): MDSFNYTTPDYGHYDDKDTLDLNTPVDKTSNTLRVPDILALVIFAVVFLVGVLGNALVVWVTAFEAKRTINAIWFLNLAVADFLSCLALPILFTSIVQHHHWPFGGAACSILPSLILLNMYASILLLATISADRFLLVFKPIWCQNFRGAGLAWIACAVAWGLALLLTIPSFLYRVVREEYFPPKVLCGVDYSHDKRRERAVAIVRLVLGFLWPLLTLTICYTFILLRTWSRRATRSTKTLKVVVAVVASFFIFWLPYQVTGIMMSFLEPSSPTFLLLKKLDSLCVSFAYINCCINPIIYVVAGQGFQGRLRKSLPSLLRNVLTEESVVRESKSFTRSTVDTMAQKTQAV
# B1: MIP1-β: natural ligand for CCR5, used as radioligand (protein, UniProt P13236 24-92, looked up)
# C-C motif chemokine 4: APMGSDPPTACCFSYTARKLPRNFVVDYYETSSLCSQPAVVFQTKRSKQVCADPSESWVQEYVYDLELN
# modifications: also: radiolabel
# B2: C5a: ligand of the C5a receptor (protein, UniProt P01031 678-751, looked up)
# C5a anaphylatoxin: TLQKKIEEIAAKYKHSVVKKCCYDGACVNNDETCEQRAARISLGPRCIKAFTECCVVASQLRANISHKDMQLGR
# modifications: C5a anaphylatoxin
# notes: ligand of the C5a receptor
# B3: MDC: macrophage-derived chemokine, a CCR4 ligand (protein, UniProt O00626 25-93, looked up)
# C-C motif chemokine 22: GPYGANMEDSVCCRDYVRYRLPLRVVKHFYWTSDSCPRPGVVLLTFRDKEICADPRVPWVKMILNKLSQ
# Assays:
# CCR5 [1] = assay: Affinity de-orphaning: in vitro translated cDNA pool incubated with immobilized CCR5-GST, SDS-PAGE/phosphorimage; format: binding; conditions: human lung cDNA library spiked with RANTES, [35S]-Met, CCR5 on sepharose beads
# Procedure: CCR5 was obtained and prepared with a GST tag according to the steps provided in Example 1. CCR5-GST was immobilized on a glutathione column using the GST tag, and incubated with ligands obtained using in vitro translation of small pools of approximately 100 clones from a cDNA library. […] Thereafter, a human lung cDNA library was spiked with RANTES and was transcribed and translated in vitro using the TNT Quick Coupled Wheat Germ kit, available from Promega Corporation (Madison, Wis.) with [^35S]-Met. RANTES cDNA alone was used as a positive control for translation and binding experiments.
# A human lung cDNA library was chosen because RANTES was originally isolated from a human lung library. Also, libraries derived from tissues having an abundant number of immune cells, such as spleen and thymus tissues also are possible sources. The cDNA was in a bacterial host (E. coli). In general, the clones were transcribed and translated, and a mixture of their respective proteins was produced in a concentrated sample. This sample then was then probed with a receptor (i.e., CCR5) to determine if there are any proteins in the pool that can bind to the receptor of interest. The concentration was approximately 5×10^9 colony forming units per ml. Thus, dilution was necessary to dilute the number of clones to approximately 100 per pool. […]
# CCR5 [2] = assay: Affinity purification of THP-1 culture supernatant HPLC fractions on immobilized CCR5, silver stain/mass spectrometry; format: binding; conditions: LPS-induced THP-1 supernatant, RP-HPLC fractions
# Procedure: Expressed CCR5-GST was immobilized in the same fashion as described above using a glutathione-sepharose resin. THP-1 cells, a monocytic cell line, were induced with lipopolysaccharide (LPS) from E. coli extracts (Sigma, St. Louis, Mo.), and grown for 48 hours. THP-1 cells were selected for the purpose of this experiment because THP-1 cells are a general monocytic cell line that expresses CCR5 (the receptor of interest). Also, THP-1 cells, and other monocytes are involved in the inflammatory process and migrate to sites of inflammation in response to a chemokine gradient. These cells can also be induced to produce more chemokines by using reagents such as lipopolysaccharide (LPS) from E. coli.
# The THP-1 cells were harvested by centrifugation. […] The quantity of RANTES quantitatively determined to be approximately 1 μg in approximately 2-3 L. These crude fractions or pools were purified by CCR5 affinity columns and by incubating with the immobilized CCR5. […]
# The CCR5 with column fractions were compared to CCR5-only controls because there are proteins that non-specifically bind to the column, and because the CCR5 receptor and any contaminants present in the preparation can be seen as protein bands. […] Therefore, bands that were detected only in the fraction samples were submitted for sequencing and identified by mass spectrometry. […]
# CCR5 [3] = assay: Ligand mixture incubated with immobilized CCR5, western blot detection; format: binding; conditions: mixture of RANTES, MDC, gonadotropin releasing hormone
# Procedure: CCR5 was obtained and prepared with a GST tag bound to glutathione column according to the steps provided in Example 1. Thereafter, a ligand mixture (RANTES, MDC, gonadotropin releasing hormone) was incubated with immobilized CCR5 to determine which ligands bound to the receptor. After washing to remove non-specific binding, the SDS-PAGE sample buffer was added to each, boiled for 1 minute, and loaded onto an SDS-PAGE gel. In order to analyze the beads, SDS-PAGE was performed on the various samples and transferred to nitrocellulose by western blotting to determine which ligands were bound. Duplicate samples were run, one group for detection with anti-RANTES antibody and one group for detection with anti-MDC antibody.
# The molecular weights (in kDa) as determined by the standards are listed on the left side of the blot. The individual lanes are numbered across the top of the blot. Lanes 1-4 were developed with anti-RANTES antibody. […] The band at approximately 8 kDa is RANTES. […] Lane 3 is a RANTES standard (positive control). Lane 4 is the MDC (macrophage-derived chemokine) standard (negative control—[…]). Lanes 5-8 were developed with anti-MDC (macrophage-derived chemokine, a CCR4 ligand ) antibody. […] Lane 6 is the same as lane 2 but developed with anti-MDC antibody. Lane 7 is RANTES standard and Lane 8 is MDC standard. […]
# β1-adrenergic receptor = β1-adrenergic receptor (Homo sapiens, UniProt P08588); assay: Binding-displacement at β1-adrenergic receptor (FIG. 2D); conditions: membranes or solubilized receptor; 10 μM unlabeled ligand
# β1-adrenergic receptor, sequence (P08588 whole entry, species assumed): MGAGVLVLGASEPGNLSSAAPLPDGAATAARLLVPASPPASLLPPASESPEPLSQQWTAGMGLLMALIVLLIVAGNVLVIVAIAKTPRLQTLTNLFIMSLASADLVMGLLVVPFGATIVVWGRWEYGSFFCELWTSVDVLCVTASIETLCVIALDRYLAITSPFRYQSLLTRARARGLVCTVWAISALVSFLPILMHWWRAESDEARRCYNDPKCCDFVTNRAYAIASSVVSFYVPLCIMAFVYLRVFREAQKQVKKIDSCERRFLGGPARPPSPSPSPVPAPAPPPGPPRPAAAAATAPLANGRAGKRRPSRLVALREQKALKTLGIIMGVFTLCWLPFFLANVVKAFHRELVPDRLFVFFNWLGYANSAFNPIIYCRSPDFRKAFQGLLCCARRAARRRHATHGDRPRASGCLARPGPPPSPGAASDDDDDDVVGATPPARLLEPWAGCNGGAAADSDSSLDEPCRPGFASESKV
# Procedure: (§1) The β1-adrenergic receptor, either in the membranes or solubilized (according to the invention), was incubated with the radiolabeled ligand, iodocyanopindolol, at a set concentration, in the presence or absence of 10 μM unlabeled ligand (pindolol). In the absence of unlabeled ligand, maximal binding of the radiolabeled ligand is observed.
# CCR5 [4] = molecular target: T1, CCR5; assay: Binding-displacement of radiolabeled MIP-1β at CCR5 (FIG. 2A); conditions: CCR5 in membranes or solubilized and immobilized; various concentrations
# Procedure: The CCR5 receptor, either in membranes or solubilized and immobilized onto the column, was incubated with the radiolabeled ligand, MIP-1β, at a set concentration, in the presence of various concentrations of the unlabeled ligand, MIP-1α. […] This displacement of the radioligand with increasing concentrations of unlabeled ligand gave a standard sigmoidal shaped curve. The two curves, one for the membrane binding-displacement and one for the binding-displacement for the immobilized receptor were substantially similar (within the experimental error), indicating similar functional conformation of the receptor in the membranes and immobilized receptor.
# CCR5 [5] = conditions: CCR5 membrane preparations; value obtained by Receptor Biology, own preparations comparable; read-out: Kd for MIP1-β binding; cited from earlier work
# C5a receptor = molecular target: T2, C5a receptor; assay: Binding-displacement at C5a receptor (FIG. 2E); conditions: membranes or solubilized receptor; 10 μM unlabeled ligand
# Procedure: as §1, with “[…],” for “β1-adrenergic receptor,”, “C5a,” for “iodocyanopindolol,”, “(C5a).” for “(pindolol).”
molecule,measurement,setting,value
RANTES: a natural ligand for CCR5,binding of translated ligand to immobilized CCR5,CCR5 [1],binding was observed
same,"ligand bound to immobilized CCR5, identified by mass spectrometry",CCR5 [2],ligand for CCR5
same,binding to immobilized CCR5 from ligand mixture,CCR5 [3],specifically binds to the CCR5 receptor; also recorded: bound specifically to CCR5
"statherin: second binder identified from THP-1 supernatant on CCR5 (DSSEEKFLRRIGRFGYGYGPYQPVPEQPLYPQPYQPQYQQYTF; UniProt P02808 20-62, looked up)","ligand bound to immobilized CCR5, identified by mass spectrometry",CCR5 [2],binder
CC(C)NCC(O)COc1cccc2[nH]ccc12 (stereo not drawn) [pindolol],displacement of radiolabeled iodocyanopindolol by unlabeled ligand,β1-adrenergic receptor,displacement of the radiolabeled ligand down to background levels
"MIP-1α: natural ligand for CCR5, unlabeled competing ligand",displacement of radiolabeled MIP-1β by unlabeled ligand,CCR5 [4],displaced more of the radiolabeled ligand
B1,Kd,CCR5 [5],< 1 nM
B2,displacement of radiolabeled C5a by unlabeled ligand,C5a receptor,displacement of the radiolabeled ligand down to background levels
B3,binding to immobilized CCR5 from ligand mixture,CCR5 [3],does not bind to CCR5
